Assay results from patent US20220135591A1, “HETEROCYCLIC COMPOUNDS AS INHIBITORS OF MONOACYLGLYCEROL LIPASE (MAGL)” (Hoffmann-La Roche Inc., priority 2019, published 2022).

These compounds were tested against T1, MAGL (Homo sapiens, UniProt Q99685) (assay: 2-AG assay: MAGL inhibitory activity by hydrolysis of 2-arachidonoylglycerol to arachidonic acid, mass spectrometry). Settings: 2-AG assay (values marked [b]).
T1 sequence (Q99685 1-303): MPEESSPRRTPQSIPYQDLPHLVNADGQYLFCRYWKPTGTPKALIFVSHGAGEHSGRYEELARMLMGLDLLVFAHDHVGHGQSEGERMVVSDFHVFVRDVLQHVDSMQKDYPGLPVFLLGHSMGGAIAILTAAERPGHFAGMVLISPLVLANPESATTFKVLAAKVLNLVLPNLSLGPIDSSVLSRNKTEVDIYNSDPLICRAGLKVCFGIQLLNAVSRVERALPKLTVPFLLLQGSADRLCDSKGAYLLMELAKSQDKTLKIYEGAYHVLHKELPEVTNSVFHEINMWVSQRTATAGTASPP
Format: biochemical
Procedure: Alternatively, compounds were profiled for MAGL inhibitory activity by determining the enzymatic activity by following the hydrolysis of the natural substrate 2-arachidonoylglycerol (2-AG) resulting in arachidonic acid, which can be followed by mass spectrometry. This assay is hereinafter abbreviated “2-AG assay”.
The 2-AG assay was carried out in 384 well assay plates (PP, Greiner Cat #784201) in a total volume of 20 μL. Compound dilutions were made in 100% DMSO (VWR Chemicals 23500.297) in a polypropylene plate in 3-fold dilution steps to give a final concentration range in the assay from 12.5 μM to […]. 0.25 μL compound dilutions (100% DMSO) were added to 9 μL MAGL in assay buffer (50 mM TRIS (GIBCO, 15567-027), 1 mM EDTA (Fluka, 03690-100 mL), 0.01% (v/v) Tween. After shaking, the plate was incubated for 15 min at RT. To start the reaction, 10 μL 2-arachidonoylglycerol in assay buffer was added. The final concentrations in the assay was […] and 8 μM 2-arachidonoylglyerol. After shaking and 30 min incubation at RT, the reaction was quenched by the addition of 40 μL of ACN containing 4 μM of d8-arachidonic acid. The amount of arachidonic acid was traced by an online SPE system (Agilent Rapidfire) coupled to a triple quadrupole mass spectrometer (Agilent 6460). A C18 SPE cartridge (G9205A) was used in an ACN/water liquid setup. The mass spectrometer was operated in negative electrospray mode following the mass transitions 303.1→259.1 for arachidonic acid and 311.1→267.0 for d8-arachidonic acid. The activity of the compounds was calculated based on the ratio of intensities [arachidonic acid/d8-arachidonic acid].

Row | SMILES | IC50 [µM]
1 | CC(C)(C)c1nnc(-c2ccc(C(=O)N3CCN(c4nc5nc(Cl)ccc5o4)CC3)cc2C(F)(F)F)o1 [Example 122, [4-(5-tert-butyl-1,3,4-oxadiazol-2-yl)-3-(trifluoromethyl)phenyl]-[4-(5-chlorooxazolo[4,5-b]pyridin-2-yl)piperazin-1-yl]methanone] | 0.003
2 | COc1cc(C(=O)N2CCN(c3nc4nc(C)ccc4o3)CC2)ccc1-c1ncn(C(C)(C)C)n1 [Example 123, (4-(1-(tert-butyl)-1H-1,2,4-triazol-3-yl)-3-methoxyphenyl)(4-(5-methyloxazolo[4,5-b]pyridin-2-yl)piperazin-1-yl)methanone] | 0.174
3 | O=C(c1ccc(-c2cn(CC3(F)CC3)nn2)cc1)N1CCN(c2nc3nc(Cl)ccc3o2)CC1 [Example 125, (4-(5-chlorooxazolo[4,5-b]pyridin-2-yl)piperazin-1-yl)(4-(1-((1-fluorocyclopropyl)methyl)-1H-1,2,3-triazol-4-yl)phenyl)methanone] | 0.121
4 | Cc1ccc2oc(N3CCN(C(=O)c4ccc(-c5cn(CC6(F)CC6)nn5)cc4)CC3)nc2n1 [Example 126, (4-(1-((1-fluorocyclopropyl)methyl)-1H-1,2,3-triazol-4-yl)phenyl)(4-(5-methyloxazolo[4,5-b]pyridin-2-yl)piperazin-1-yl)methanone] | 0.472
5 | Cc1cc(C(=O)N2CCN(c3nc4nc(Cl)ccc4o3)CC2)cnc1-n1cnc(C(C)(C)C)n1 [Example 129, [6-(3-tert-butyl-1,2,4-triazol-1-yl)-5-methylpyridin-3-yl]-[4-(5-chloro-[1,3]oxazolo[4,5-b]pyridin-2-yl)piperazin-1-yl]methanone] | 0.052
6 | CC(C)(C#N)Cn1ncc(-c2ccc(C(=O)N3CCN(c4nc5nc(Cl)ccc5o4)CC3)cc2)n1 [Example 136, 3-[4-[4-[4-(5-chlorooxazolo[4,5-b]pyridin-2-yl)piperazine-1-carbonyl]phenyl]triazol-2-yl]-2,2-dimethyl-propanenitrile] | 0.034
7 | Cc1nc(C(=O)N2CCN(c3nc4nc(Cl)ccc4o3)CC2)cnc1OCC1(C(F)(F)F)CC1 [Example 137, [4-(5-chlorooxazolo[4,5-b]pyridin-2-yl)piperazin-1-yl]-[6-methyl-5-[[1-(trifluoromethyl)cyclopropyl]methoxy]pyrazin-2-yl]methanone] | 0.034
8 | COc1cc(C(=O)N2CCN(c3nc4nc(Cl)ccc4o3)CC2)cnc1OCC1(C(F)(F)F)CC1 [Example 138, [4-(5-chlorooxazolo[4,5-b]pyridin-2-yl)piperazin-1-yl]-[5-methoxy-6-[[1-(trifluoromethyl)cyclopropyl]methoxy]-3-pyridyl]methanone] | 0.183
9 | Cc1nc(C(=O)N2CCN(c3nc4nc(Cl)ccc4o3)CC2)ccc1OCC1(C(F)(F)F)CC1 [Example 140, [4-(5-chlorooxazolo[4,5-b]pyridin-2-yl)piperazin-1-yl]-[6-methyl-5-[[1-(trifluoromethyl)cyclopropyl]methoxy]-2-pyridyl]methanone] | 0.326
10 | Cc1ccc2oc(N3CCN(C(=O)c4cnc(OCC5(C)CC5)c(F)c4)CC3)nc2n1 [Example 148, (5-fluoro-6-((1-methylcyclopropyl)methoxy)pyridin-3-yl)(4-(5-methyloxazolo[4,5-b]pyridin-2-yl)piperazin-1-yl)methanone] | 0.226
11 | CC1(COc2ncc(C(=O)N3CCN(c4nc5nc(Cl)ccc5o4)CC3)cc2Cl)CC1 [Example 149, (5-chloro-6-((1-methylcyclopropyl)methoxy)pyridin-3-yl)(4-(5-chlorooxazolo[4,5-b]pyridin-2-yl)piperazin-1-yl)methanone] | 0.02
12 | Cc1ccc2oc(N3CCN(C(=O)c4cnc(OCC5(C(F)(F)F)CC5)c(F)c4)CC3)nc2n1 [Example 150, (5-fluoro-6-((1-(trifluoromethyl)cyclopropyl)methoxy)pyridin-3-yl)(4-(5-methyloxazolo[4,5-b]pyridin-2-yl)piperazin-1-yl)methanone] | 0.046

The remaining compounds from weak to strong by IC50, led by results:

Row | IC50 [µM] | SMILES
13 | 0.387 | Cc1ccc2oc(N3CCN(C(=O)c4ccc(OCC5(C(F)(F)F)CC5)c(C)n4)CC3)nc2n1 [Example 139, [4-(5-methyloxazolo[4,5-b]pyridin-2-yl)piperazin-1-yl]-[6-methyl-5-[[1-(trifluoromethyl)cyclopropyl]methoxy]-2-pyridyl]methanone]
14 | 0.228 | Cc1ccc2oc(N3CCN(C(=O)c4ccc(-c5nc(C(C)(C)C)nn5C)cc4)CC3)nc2n1 [Example 127, [4-(5-tert-butyl-2-methyl-1,2,4-triazol-3-yl)phenyl]-[4-(5-methyloxazolo[4,5-b]pyridin-2-yl)piperazin-1-yl]methanone]
15 | 0.116 | Cc1ccc2oc(N3CCN(C(=O)c4ccc(-c5cn(C(C)(C)CF)nn5)cc4)CC3)nc2n1 [Example 135, (4-(1-(1-fluoro-2-methylpropan-2-yl)-1H-1,2,3-triazol-4-yl)phenyl)(4-(5-methyloxazolo[4,5-b]pyridin-2-yl)piperazin-1-yl)methanone]
16 | 0.107 | Cc1ccc2oc(N3CCN(C(=O)c4cnc(-n5cnc(C(C)(C)C)n5)c(C)c4)CC3)nc2n1 [Example 128, [6-(3-tert-butyl-1,2,4-triazol-1-yl)-5-methylpyridin-3-yl]-[4-(5-methyl-[1,3]oxazolo[4,5-b]pyridin-2-yl)piperazin-1-yl]methanone]
17 | 0.094 | Cc1ccc2oc(N3CCN(C(=O)c4ccc(-c5cn(CC(C)(C)F)nn5)cc4)CC3)nc2n1 [Example 133, (4-(1-(2-fluoro-2-methylpropyl)-1H-1,2,3-triazol-4-yl)phenyl)(4-(5-methyloxazolo[4,5-b]pyridin-2-yl)piperazin-1-yl)methanone]
18 | 0.081 | COc1cc(C(=O)N2CCN(c3nc4nc(Cl)ccc4o3)CC2)ccc1-c1ncn(C(C)(C)C)n1 [Example 124, (4-(1-(tert-butyl)-1H-1,2,4-triazol-3-yl)-3-methoxyphenyl)(4-(5-chlorooxazolo[4,5-b]pyridin-2-yl)piperazin-1-yl)methanone]
19 | 0.055 | Cc1ccc2oc(N3CCN(C(=O)c4cnc(OCC5(C(F)(F)F)CC5)c(OCC5(C(F)(F)F)CC5)c4)CC3)nc2n1 [Example 151, (5,6-bis((1-(trifluoromethyl)cyclopropyl)methoxy)pyridin-3-yl)(4-(5-methyloxazolo[4,5-b]pyridin-2-yl)piperazin-1-yl)methanone]
20 | 0.049 | CC(C)(F)Cn1cc(-c2ccc(C(=O)N3CCN(c4nc5nc(Cl)ccc5o4)CC3)cc2)nn1 [Example 132, (4-(5-chlorooxazolo[4,5-b]pyridin-2-yl)piperazin-1-yl)(4-(1-(2-fluoro-2-methylpropyl)-1H-1,2,3-triazol-4-yl)phenyl)methanone]
21 | 0.048 | CC(C)(CF)n1cc(-c2ccc(C(=O)N3CCN(c4nc5nc(Cl)ccc5o4)CC3)cc2)nn1 [Example 134, (4-(5-chlorooxazolo[4,5-b]pyridin-2-yl)piperazin-1-yl)(4-(1-(1-fluoro-2-methylpropan-2-yl)-1H-1,2,3-triazol-4-yl)phenyl)methanone]
22 | 0.035 | CC(C)(C#N)Cn1cc(-c2ccc(C(=O)N3CCN(c4nc5nc(Cl)ccc5o4)CC3)cc2)nn1 [Example 131, 3-[4-[4-[4-(5-chlorooxazolo[4,5-b]pyridin-2-yl)piperazine-1-carbonyl]phenyl]triazol-1-yl]-2,2-dimethyl-propanenitrile]
23 | 0.015 | O=C(c1cnc(OCC2(C(F)(F)F)CC2)c(Cl)c1)N1CCN(c2nc3nc(Cl)ccc3o2)CC1 [Example 152, (5-chloro-6-((1-(trifluoromethyl)cyclopropyl)methoxy)pyridin-3-yl)(4-(5-chlorooxazolo[4,5-b]pyridin-2-yl)piperazin-1-yl)methanone]
24 | 0.01 | Cc1cc(C(=O)N2CCN(c3nc4nc(Cl)ccc4o3)CC2)cnc1OCC1(C(F)(F)F)CC1 [Example 153, (4-(5-chlorooxazolo[4,5-b]pyridin-2-yl)piperazin-1-yl)(5-methyl-6-((1-(trifluoromethyl)cyclopropyl)methoxy)pyridin-3-yl)methanone]
25 | 0.008 | Cc1ccc2oc(N3CCN(C(=O)c4cnc(-n5cc(C(C)(C)C)cn5)c(C)c4)CC3)nc2n1 [Example 130, [6-(4-tert-butylpyrazol-1-yl)-5-methylpyridin-3-yl]-[4-(5-methyl-[1,3]oxazolo[4,5-b]pyridin-2-yl)piperazin-1-yl]methanone]
26 | 0.008 | O=C(c1cnc(OCC2(C(F)(F)F)CC2)c(C(F)(F)F)c1)N1CCN(c2nc3nc(Cl)ccc3o2)CC1 [Example 154, (4-(5-chlorooxazolo[4,5-b]pyridin-2-yl)piperazin-1-yl)(5-(trifluoromethyl)-6-((1-(trifluoromethyl)cyclopropyl)methoxy)pyridin-3-yl)methanone]
